Patent US20050107447A1, “Novel lysophosphatidic acid receptor agonists and antagonists” (priority 2003, published 2005)
“Also recorded” adds a separate entry of the source.

How the values were obtained:
LPP1 (PAP2a) phosphatase = target: T1, LPP1 (PAP2a) phosphatase (Homo sapiens, UniProt O14494); test: LPP inhibition, competition with 50 nM [32P]LPA; format: biochemical; settings: 0.1, 1.0 and 10.0 mM vs 50 nM [32P]LPA
T1 sequence (O14494 1-284): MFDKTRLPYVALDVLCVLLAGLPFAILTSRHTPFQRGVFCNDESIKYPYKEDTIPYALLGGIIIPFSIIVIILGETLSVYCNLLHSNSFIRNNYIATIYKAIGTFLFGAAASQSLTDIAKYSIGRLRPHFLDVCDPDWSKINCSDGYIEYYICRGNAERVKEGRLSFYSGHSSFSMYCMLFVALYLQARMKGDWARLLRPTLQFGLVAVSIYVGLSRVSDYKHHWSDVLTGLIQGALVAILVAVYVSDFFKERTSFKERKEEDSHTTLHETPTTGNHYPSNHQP
Protocol: (§1) NOHPP was also tested for activity at the three cloned LPPs. Although the phosphonate head group eliminates the possibility of NOHPP acting as a substrate, it is possible that the compound could be a competitive inhibitor.

LPP2 (PAP2c) phosphatase = target: T2, LPP2 (PAP2c) phosphatase (Homo sapiens, UniProt O43688); test: LPP inhibition, competition with 50 nM [32P]LPA; format: biochemical; settings: 0.1, 1.0 and 10.0 mM vs 50 nM [32P]LPA
T2 sequence (O43688 1-288): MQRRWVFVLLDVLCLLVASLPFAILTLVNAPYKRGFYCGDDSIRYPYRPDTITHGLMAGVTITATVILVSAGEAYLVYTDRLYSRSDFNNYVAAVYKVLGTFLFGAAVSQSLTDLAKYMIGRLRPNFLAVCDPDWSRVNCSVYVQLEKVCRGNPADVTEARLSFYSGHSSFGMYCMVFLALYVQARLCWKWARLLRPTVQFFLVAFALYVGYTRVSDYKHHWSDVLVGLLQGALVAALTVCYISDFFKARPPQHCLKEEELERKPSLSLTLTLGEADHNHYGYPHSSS
Protocol: as §1

LPP3 (PAP2b) phosphatase = target: T3, LPP3 (PAP2b) phosphatase (Homo sapiens, UniProt O14495); test: LPP inhibition, competition with 50 nM [32P]LPA; format: biochemical; settings: for Rank order potency of LPP inhibition: LPP3 vs LPP1 vs LPP2
T3 sequence (O14495 1-311): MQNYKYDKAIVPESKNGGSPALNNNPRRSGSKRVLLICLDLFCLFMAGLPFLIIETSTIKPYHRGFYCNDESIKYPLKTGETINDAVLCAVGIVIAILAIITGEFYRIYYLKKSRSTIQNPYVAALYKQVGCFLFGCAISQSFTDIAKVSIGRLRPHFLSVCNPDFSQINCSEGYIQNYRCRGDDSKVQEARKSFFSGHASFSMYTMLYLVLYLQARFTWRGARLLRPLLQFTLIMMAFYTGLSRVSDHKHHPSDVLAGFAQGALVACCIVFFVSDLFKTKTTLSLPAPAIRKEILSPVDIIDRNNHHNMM
Protocol: as §1

LPA2 [1] = target: T4, LPA2 (Homo sapiens, UniProt Q9HBW0); test: GTP[γ35S] binding, LPA2 transfected HEK293T cell membranes; format: biochemical; parameters: expressed in transfected cells; host or cells: HEK293T (transient, calcium phosphate)
Protocol: (§2) The appropriate receptor plasmid DNA (encoding mouse LPA1, human LPA2 or human LPA3) was mixed with equal amounts of expression plasmids (pcDNA3) encoding a mutated (C351F) rat Gi2a, cow β1, and γ2 proteins and these DNAs were used to transfect monolayers of HEK293T cells (where ‘T’ indicates expression of the SV-40 virus large T antigen) using the calcium phosphate precipitate method. After about 60 hours, cells were harvested, membranes were prepared, aliquoted and stored at −70° C. until use.
(§3) The GTP[35 γS] assay was performed as described by us previously. Membranes containing 5 ug of protein were incubated in 0.1 ml GTP-binding buffer (in mM: HEPES 50, NaCl 100, MgCl2 10, pH7.5) containing […], […], 0.1 nM GTP[35 γS] (1200 Ci/mmol), and indicated lipid(s) for 30 minutes at 30° C. Samples were analyzed for membrane-bound radionuclide using a Brandel Cell Harvester (Gaithersburg, Md.).
(§4) The X-intercept of the linear transformation is equal to the inverse log of the κ1.
(§5) Membranes prepared from these cells are used to measure GTPγ[^35S] binding as a function of test compound concentration. The resulting dose-response curves provide relative potency (EC50) and efficacy, (Emax) for the test compounds.

LPA3 [2] = target: T5, LPA3 (Homo sapiens, UniProt Q9UBY5); test: GTP[γ35S] binding, LPA3 transfected HEK293T cell membranes; format: biochemical; parameters: expressed in transfected cells; host or cells: HEK293T (transient, calcium phosphate)
T5 sequence (Q9UBY5 1-353): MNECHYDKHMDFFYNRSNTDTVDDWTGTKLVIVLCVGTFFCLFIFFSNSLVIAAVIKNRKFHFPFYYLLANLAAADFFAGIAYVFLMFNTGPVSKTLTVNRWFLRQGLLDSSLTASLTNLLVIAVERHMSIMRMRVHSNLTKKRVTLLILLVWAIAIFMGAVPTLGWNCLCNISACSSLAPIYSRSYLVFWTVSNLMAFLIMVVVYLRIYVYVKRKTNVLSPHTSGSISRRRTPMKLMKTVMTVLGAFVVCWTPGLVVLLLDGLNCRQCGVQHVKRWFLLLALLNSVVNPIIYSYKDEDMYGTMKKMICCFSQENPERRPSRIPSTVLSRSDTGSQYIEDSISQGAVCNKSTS
Protocol: as §2, §3, §4, §5

LPA1 [3] = target: T6, LPA1 (Mus musculus, UniProt P61793); test: GTP[γ35S] binding, LPA1 transfected HEK293T (or RH7777) cell membranes; format: biochemical; parameters: expressed in transfected cells; host or cells: HEK293T (transient, with G protein plasmids); some results from RH7777 rat hepatoma membranes transfected with LPA1 DNA only
Protocol: as §2, §3, §4, §5

human platelets = test: Aggregation of human platelets; format: cell-based; settings: concentrations up to 10 micromolar
MDA MB-231 cells = test: Calcium mobilization through endogenous LPA receptors in MDA MB-231 cells; format: cell-based; settings: 1 μM
Protocol: (§6) wls-b8L and the other phosphonates were also tested also for activity in three whole cell assays. […] Finally, the activity of wls-b8L in activating a chloride conductance in Xenopus laevis ooctyes was measured.

[4] = tested on: endogenous LPA receptor of Xenopus laevis oocytes; test: Chloride conductance in Xenopus laevis oocytes, endogenous receptor; format: cell-based; settings: uninjected oocytes
Protocol: as §6

LPA1 [5] = target: T6, LPA1; test: cAMP accumulation in RH7777 cells stably expressing LPA1; format: cell-based; parameters: expressed in transfected cells; settings: concentration of 1 μM
Protocol: Assays for cAMP accumulation were conducted on populations of 5×10^5 cells stimulated with […] in the presence of the phosphodiesterase inhibitor isomethylbutylxanthine (IBMX) for 15 minutes at 30° C. cAMP was measured by automated radioimmunoassay.
Rat hepatoma RH7777 cell monolayers were transfected with the mLPA1 plasmid DNA using the calcium phosphate precipitate method and clonal populations expressing the neomycin phosphotransferase gene were selected by addition of geneticin (G418) to the culture media. The RH7777 cells were grown in monolayers at 37° C. in a 5% CO02/95% air atmosphere in growth media consisting of: 90% MEM, 10% fetal bovine serum, 2 mM glutamine and 1 mM sodium pyruvate.
as §6

LPA3 [6] = target: T5, LPA3; test: Chloride conductance in Xenopus oocytes injected with human LPA3 mRNA; format: cell-based; parameters: expressed in transfected cells; host or cells: Xenopus laevis oocytes injected with mRNA; settings: 10 μM
Protocol: as §6

LPA2 [7] = target: T4, LPA2; test: Chloride conductance in Xenopus oocytes injected with human LPA2 mRNA; format: cell-based; parameters: expressed in transfected cells; host or cells: Xenopus laevis oocytes injected with mRNA; settings: 10 μM
Protocol: as §6

T4 sequence (Q9HBW0 whole entry): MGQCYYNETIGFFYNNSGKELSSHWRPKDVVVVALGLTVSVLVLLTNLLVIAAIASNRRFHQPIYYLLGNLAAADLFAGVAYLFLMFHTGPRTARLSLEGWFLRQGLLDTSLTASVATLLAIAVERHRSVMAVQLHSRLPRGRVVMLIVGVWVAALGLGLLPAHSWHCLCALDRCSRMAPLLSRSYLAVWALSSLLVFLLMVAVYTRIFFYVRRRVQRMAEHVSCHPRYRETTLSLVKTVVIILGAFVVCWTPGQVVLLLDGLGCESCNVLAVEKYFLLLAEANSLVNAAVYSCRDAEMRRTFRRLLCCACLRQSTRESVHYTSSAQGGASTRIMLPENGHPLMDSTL
T6 sequence (P61793 whole entry): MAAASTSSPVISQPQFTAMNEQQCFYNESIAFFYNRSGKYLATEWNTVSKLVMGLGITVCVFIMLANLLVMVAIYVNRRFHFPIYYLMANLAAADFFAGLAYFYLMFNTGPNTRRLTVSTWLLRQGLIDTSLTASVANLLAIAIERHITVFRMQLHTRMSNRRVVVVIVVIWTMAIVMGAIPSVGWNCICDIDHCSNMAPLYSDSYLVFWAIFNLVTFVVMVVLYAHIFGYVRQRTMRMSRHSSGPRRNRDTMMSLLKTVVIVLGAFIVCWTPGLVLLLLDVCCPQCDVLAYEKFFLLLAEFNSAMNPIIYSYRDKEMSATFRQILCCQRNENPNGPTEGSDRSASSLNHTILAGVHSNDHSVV

Structure (SMILES) | Inhibition of LPP1 (LPP1 (PAP2a) phosphatase) | Inhibition of LPP2 (LPP2 (PAP2c) phosphatase) | Inhibition of LPP3 (LPP3 (PAP2b) phosphatase; 0.1, 1.0 and 10.0 mM vs 50 nM [32P]LPA) | Rank order potency of LPP inhibition (LPP3 (PAP2b) phosphatase) | Rank order potency of LPP inhibition (LPP3 (PAP2b) phosphatase; listed as VPC12031) | Agonist activity/efficacy at LPA2 (LPA2 [1]; compared to LPA) | Potency at LPA2 relative to LPA (LPA2 [1]; vs 1-oleoyl LPA) | Agonist activity/efficacy at LPA3 (LPA3 [2]; compared to LPA) | Potency at LPA3 relative to LPA (LPA3 [2]; vs 1-oleoyl LPA) | Agonist activity/efficacy at LPA1 (LPA1 [3]; compared to LPA) | Potency at LPA1 relative to LPA (LPA1 [3]; vs 1-oleoyl LPA) | Aggregation of human platelets (human platelets) | Calcium mobilization (MDA MB-231 cells) | Activation of chloride conductance [4] | Inhibition of cAMP accumulation (agonist efficacy) (LPA1 [5]) | Activation of chloride conductance (LPA3 [6]) | Activation of chloride conductance (LPA2 [7]) | Receptor-type selectivity of agonist activity (LPA1 vs LPA2, LPA3) (LPA1 [3]; GTPγ[35S] binding)
CCCCCCCC/C=C\CCCCCCCC(=O)NCCC(O)P(=O)(O)O (racemic) [NOHPP, (9Z)-N-(rac-3-hydroxy-3-phosphonopropyl)Octadec-9-enamide] | to a lesser extent | inactive | inhibited | LPP3>LPP1>>LPP2 | markedly better at the PAP2b (LPP3) than PAP2a (LPP1) | as efficacious as; also recorded: fully efficacious | somewhat less potent; also recorded: about one log order less potent | far less efficacious; also recorded: little activity | distinctly less potent; also recorded: greater than two log orders less potent | as efficacious as; also recorded: fully efficacious | somewhat less potent; also recorded: about one log order less potent | – | – | – | – | – | – | –
CCCCCCCC/C=C\CCCCCCCC(=O)NCCCP(=O)(O)O [wls-b8L, (9Z)-N-(3-phosphonopropyl)Octadec-9-enamide] | – | – | – | – | – | – | – | – | – | – | – | does not elicit aggregation | inactive | does not evoke this response | fully efficacious | very modest response | very modest response | more potent and efficacious at LPA1 than at either LPA2 or LPA3; also recorded: distinctly more selective
